Consider three compounds from US10925880B2, “Combination of PI3K-inhibitors” (BAYER PHARMA AKTIENGESELLSCHAFT, priority 2016, dated 2021).

Structures can show the parent of a compound that is named as a salt.

Type in all cases: cell-based
One assay concerns ESKOL. Kind of assay: 72-hour cell proliferation assay (Cell Titer Glo). To be noted: ESKOL (MZL), single agent; for IC50: 72 h. The procedure: (§1) Combinations of Copanlisib and ABT-199 or Palbociclib in a Panel Cell Lines Assessed by the Combination Index (CI) of a 72-Hour Cell Proliferation Assay The effect of combinations of the present invention was evaluated using combination index isobologram analysis for in vitro assessment. The efficacy parameter was the effect in a 72-hour cell proliferation assay. Briefly, 3000 cells were plated in 384-well plates with appropriate growth medium. […] Cells were treated for 72 hours followed by assessment of cell viability by means of Cell Titer Glo assay (Promega). Experiments were conducted in duplicates. The mapping IC50 values were calculated. The corresponding component concentrations of copanlisib and ABT-199 or Palbociclib were calculated and used for plotting isobolograms. Effects were analyzed as described by Chou (Pharmacology Reviews 2006) and the combination index was calculated using the formula: Combination Index=[Ax]/A′+[Bx]/B′ [Ax] and [Bx] refer to component A and component B. A′ and B′ refer to the IC50 values of A and B, respectively, as a single agent. […] Cis of 0.9-1.1 were defined as additive effect. Cis greater than 1.1 were defined as antagonistic effects.
(In general: ATP-based viability assays read luminescence as a measure of living cells.)

The subject of the next assay is GRANTA-519. The experiment in a line: 72-hour cell proliferation assay (Cell Titer Glo). The following applies: GRANTA-519 (MCL), single agent; for IC50: Homo sapiens, 72 h. The procedure:
as §1

The next assay deals with HAIR-M. Kind of assay: 72-hour cell proliferation assay (Cell Titer Glo). The following applies: HAIR-M (MZL), single agent; for IC50: 72 h. The procedure:
as §1

The next assay deals with HC-1. Kind of assay: 72-hour cell proliferation assay (Cell Titer Glo). To be noted: HC-1 (MZL), single agent; for IC50: 72 h. On the procedure: as §1
A further assay relates to JEKO-1. Kind of assay: 72-hour cell proliferation assay (Cell Titer Glo). To be noted: JEKO-1 (MCL), single agent; for IC50: Homo sapiens, 72 h. The procedure: as §1
The test system of the next assay is JVM-2. The experiment in a line: 72-hour cell proliferation assay (Cell Titer Glo). The following applies: JVM-2 (MCL), single agent; for IC50: Homo sapiens, 72 h. On the procedure: as §1
The test system of a further assay is KARPAS-1718. Kind of assay: 72-hour cell proliferation assay (Cell Titer Glo). The following applies: KARPAS-1718 (SMZL), single agent; for IC50: 72 h. The procedure: as §1
A further assay deals with MAVER-1. The experiment in a line: 72-hour cell proliferation assay (Cell Titer Glo). The following applies: MAVER-1 (MCL), single agent; for IC50: Homo sapiens, Maver1, 72 h. The procedure: as §1
The next assay concerns MINO. Kind of assay: 72-hour cell proliferation assay (Cell Titer Glo). The following applies: MINO (MCL), single agent; for IC50: Homo sapiens, 72 h. The procedure:
as §1

A further assay has as its system REC-1. The experiment in a line: 72-hour cell proliferation assay (Cell Titer Glo). To be noted: REC-1 (MCL), single agent; for IC50: Homo sapiens, Rec1, 72 h. On the procedure: as §1
In the next assay the test system is SP-49. The experiment in a line: 72-hour cell proliferation assay (Cell Titer Glo). The following applies: SP-49 (MCL), single agent; for IC50: 72 h. On the procedure:
as §1

For the next assay, the system named is SP-53. Kind of assay: 72-hour cell proliferation assay (Cell Titer Glo). The following applies: SP-53 (MCL), single agent; for IC50: 72 h. The procedure:
as §1

For another assay, the system named is SSK41. The experiment in a line: 72-hour cell proliferation assay (Cell Titer Glo). To be noted: SSK41 (SMZL), single agent; for IC50: 72 h. On the procedure: as §1
Another assay relates to UPN1. The experiment in a line: 72-hour cell proliferation assay (Cell Titer Glo). To be noted: single agent; for IC50: UPN1 (MCL), 72 h. On the procedure:
as §1

The next assay deals with VL51. The experiment in a line: 72-hour cell proliferation assay (Cell Titer Glo). To be noted: VL51 (SMZL), single agent; for IC50: Homo sapiens, 72 h. The procedure:
as §1

In the next assay the test system is Z-138. Kind of assay: 72-hour cell proliferation assay (Cell Titer Glo). To be noted: Z-138 (MCL), single agent; for IC50: Homo sapiens, 72 h. The procedure: as §1
For assay [1], the system named is Mantle Cell Lymphoma (MCL), Marginal zone lymphoma (MZL) and Splenic marginal zone lymphoma (SMZL) cell lines. Kind of assay: 72-hour cell proliferation assay, summary over the cell line panel. The following applies: ten MCL, three MZL and three SMZL cell lines, range over panel. On the procedure:
as §1

The term IC50 denotes the concentration needed to halve the response being measured. In the case of `CC(=O)c1c(C)c2cnc(Nc3ccc(N4CCNCC4)cn3)nc2n(C2CCCC2)c1=O` [palbociclib, reference compound], the half-inhibitory concentration (IC50) is 2070 nM with ESKOL; at least 10000 nM with GRANTA-519; 1560 nM in the assay with HAIR-M; 2300 nM in the assay on HC-1; 404 nM in the assay with JEKO-1; 5660 nM in the assay on JVM-2. Also, the IC50 stood at 7650 nM with KARPAS-1718; 470 nM in the assay on MAVER-1; 575 nM in the assay with MINO; 4710 nM with REC-1; 205 nM in the assay on SP-49; 95.9 nM with SP-53. The IC50 in the assay on SSK41 was 2310 nM; in the assay with UPN1, 3400 nM; with VL51, at least 10000 nM; in the assay with Z-138 it was 1290 nM.
Turning to `COc1c(OCCCN2CCOCC2)ccc2c1N=C(NC(=O)c1cnc(N)nc1)N1CCN=C21` [copanlisib, 2-amino-N—[7-methoxy-8-(3-morpholin-4-ylpropoxy)-2,3-dihydroimidazo[1,2-c]quinazolin-5-yl]pyrimidine-5-carboxamide dihydrochloride], the monotherapy anti-proliferative activity entry is reported as “strong” with ESKOL; “moderate” with GRANTA-519; “very strong” with HAIR-M; “moderate” with HC-1; “strong” with JEKO-1; “strong” in the assay on JVM-2. Further, the monotherapy anti-proliferative activity entry in the assay on KARPAS-1718 is recorded as “strong”; in the assay on MAVER-1, “moderate”; in the assay with MINO it was “moderate”; in the assay on REC-1 it was “very strong”; in the assay on SP-49, “very strong”; in the assay with SP-53, “very strong”. In addition, the monotherapy anti-proliferative activity result is on record as “strong” with SSK41; “strong” in the assay with UPN1 (UPN-1 (MCL)); “strong” in the assay with VL51; “strong” in the assay on Z-138; “very strong to moderate” in assay [1]. Also, the IC50 was found to be 98.8 nM with ESKOL; 111 nM with GRANTA-519; 5.39 nM in the assay on HAIR-M; 183 nM with HC-1; 40.9 nM with JEKO-1; 21.7 nM with JVM-2. In addition, the IC50 in the assay on KARPAS-1718 was 15.1 nM; with MAVER-1, 104 nM; in the assay with MINO, 102 nM; with REC-1, 6 nM; with SP-49, 2.5 nM; in the assay on SP-53, 1.43 nM. Besides, the IC50 in the assay with SSK41 came to 50.8 nM; in the assay on UPN1, 15 nM; in the assay on VL51, 20.7 nM; in the assay with Z-138, 20.5 nM.
With `CC1(C)CCC(CN2CCN(c3ccc(C(=O)NS(=O)(=O)c4ccc(NCC5CCOCC5)c([N+](=O)[O-])c4)c(Oc4cnc5[nH]ccc5c4)c3)CC2)=C(c2ccc(Cl)cc2)C1` [venetoclax, reference compound], the IC50 is at least 10000 nM in the assay on ESKOL; 17.7 nM with GRANTA-519; 256 nM in the assay on HAIR-M; at least 10000 nM in the assay on HC-1; 3430 nM in the assay with JEKO-1; 5740 nM in the assay on JVM-2. The half-maximal inhibitory concentration (IC50) is 3.72 nM with KARPAS-1718; 1.86 nM with MAVER-1; 1.28 nM with MINO; 20.3 nM in the assay on REC-1; 1720 nM in the assay on SP-49; at least 10000 nM in the assay on SP-53. The IC50 is 6230 nM with SSK41, at least 10000 nM in the assay with UPN1, 1490 nM in the assay with VL51 and 1000 nM with Z-138.
